Laboratory results published in PubChem BioAssay AID1745844 (Carcinogenic Potency Database (CPDB), 2022).
The source made the active and inactive calls. No rule for the calls is given here.

Test system: rodent lifetime carcinogenesis bioassay, tumor incidence TD50
Assay: carcinogenic potency in animals, long-term in vivo studies, CPDB compilation (AID 1745844)

`CCCCN(N=O)C(N)=O` was tested. Which TD50 (rat, strain F344/DuCrj, females, in drinking water, site: all sites, lesion: several types, types named in the paper, dosed 50 weeks, study length 50 weeks) did it give?
Its TD50 is 24.7 mg/kg/day.

What about the TD50 (rat, strain F344/DuCrj, females, in drinking water, site: digestive tract, lesion: several types, types named in the paper, dosed 50 weeks, study length 50 weeks) of the same molecule?
Its TD50 is 1.3 mg/kg/day.

And the TD50 (rat, strain F344/DuCrj, females, in drinking water, site: ear duct, lesion: several types, types named in the paper, dosed 50 weeks, study length 50 weeks)?
The TD50 was 11.6 mg/kg/day.

What about the TD50 (rat, strain F344/DuCrj, females, in drinking water, site: ear duct, lesion: squamous-cell carcinoma, sebaceous, dosed 50 weeks, study length 50 weeks) of the same molecule?
Its TD50 is 19.4 mg/kg/day.

What about the TD50 (rat, strain F344/DuCrj, females, in drinking water, site: esophagus, lesion: papilloma, dosed 50 weeks, study length 50 weeks) of the same molecule?
The TD50 was 6.58 mg/kg/day.

What about the TD50 (rat, strain F344/DuCrj, females, in drinking water, site: esophagus, lesion: several types, types named in the paper, dosed 50 weeks, study length 50 weeks) of the same molecule?
Its TD50 is 3.21 mg/kg/day.

And the TD50 (rat, strain F344/DuCrj, females, in drinking water, site: esophagus, lesion: squamous-cell carcinoma, dosed 50 weeks, study length 50 weeks)?
The TD50 was 8.05 mg/kg/day.

What about the TD50 (rat, strain F344/DuCrj, females, in drinking water, site: forestomach, lesion: papilloma, dosed 50 weeks, study length 50 weeks) of the same molecule?
The TD50 was 4 mg/kg/day.

And the TD50 (rat, strain F344/DuCrj, females, in drinking water, site: forestomach, lesion: several types, types named in the paper, dosed 50 weeks, study length 50 weeks)?
The TD50 was 2.43 mg/kg/day.

What about the TD50 (rat, strain F344/DuCrj, females, in drinking water, site: forestomach, lesion: squamous-cell carcinoma, dosed 50 weeks, study length 50 weeks) of the same molecule?
Its TD50 is 10.2 mg/kg/day.

What about the TD50 (rat, strain F344/DuCrj, females, in drinking water, site: pharynx, lesion: several types, types named in the paper, dosed 50 weeks, study length 50 weeks) of the same molecule?
The TD50 was 8.05 mg/kg/day.

What about the TD50 (rat, strain F344/DuCrj, females, in drinking water, site: pharynx, lesion: squamous-cell carcinoma, dosed 50 weeks, study length 50 weeks) of the same molecule?
The TD50 was 10.2 mg/kg/day.

And the TD50 (rat, strain F344/DuCrj, females, in drinking water, site: tongue, lesion: papilloma, dosed 50 weeks, study length 50 weeks)?
The TD50 was 13.5 mg/kg/day.

What about the TD50 (rat, strain F344/DuCrj, females, in drinking water, site: tongue, lesion: several types, types named in the paper, dosed 50 weeks, study length 50 weeks) of the same molecule?
Its TD50 is 10.2 mg/kg/day.

And the TD50 (rat, strain F344/DuCrj, females, in drinking water, site: vagina, lesion: papilloma, dosed 50 weeks, study length 50 weeks)?
The TD50 was 6 mg/kg/day.

What about the TD50 (rat, strain F344/DuCrj, females, in drinking water, site: vagina, lesion: several types, types named in the paper, dosed 50 weeks, study length 50 weeks) of the same molecule?
Its TD50 is 5.05 mg/kg/day.

And the TD50 (rat, strain F344/DuCrj, males, in drinking water, site: all sites, lesion: several types, types named in the paper, dosed 50 weeks, study length 50 weeks)?
Its TD50 is 10.2 mg/kg/day.

And the TD50 (rat, strain F344/DuCrj, males, in drinking water, site: digestive tract, lesion: several types, types named in the paper, dosed 50 weeks, study length 50 weeks)?
Its TD50 is 0.91 mg/kg/day.

What about the TD50 (rat, strain F344/DuCrj, males, in drinking water, site: duodenum, lesion: several types, types named in the paper, dosed 50 weeks, study length 50 weeks) of the same molecule?
The TD50 was 11.8 mg/kg/day.

What about the TD50 (rat, strain F344/DuCrj, males, in drinking water, site: ear duct, lesion: several types, types named in the paper, dosed 50 weeks, study length 50 weeks) of the same molecule?
The TD50 was 11.8 mg/kg/day.

And the TD50 (rat, strain F344/DuCrj, males, in drinking water, site: esophagus, lesion: papilloma, dosed 50 weeks, study length 50 weeks)?
Its TD50 is 4.08 mg/kg/day.

And the TD50 (rat, strain F344/DuCrj, males, in drinking water, site: esophagus, lesion: several types, types named in the paper, dosed 50 weeks, study length 50 weeks)?
The TD50 was 3.02 mg/kg/day.

And the TD50 (rat, strain F344/DuCrj, males, in drinking water, site: esophagus, lesion: squamous-cell carcinoma, dosed 50 weeks, study length 50 weeks)?
Its TD50 is 17 mg/kg/day.

What about the TD50 (rat, strain F344/DuCrj, males, in drinking water, site: forestomach, lesion: papilloma, dosed 50 weeks, study length 50 weeks) of the same molecule?
Its TD50 is 3.25 mg/kg/day.

What about the TD50 (rat, strain F344/DuCrj, males, in drinking water, site: forestomach, lesion: several types, types named in the paper, dosed 50 weeks, study length 50 weeks) of the same molecule?
The TD50 was 2.62 mg/kg/day.

What about the TD50 (rat, strain F344/DuCrj, males, in drinking water, site: palate, soft, lesion: several types, types named in the paper, dosed 50 weeks, study length 50 weeks) of the same molecule?
Its TD50 is 11.8 mg/kg/day.

And the TD50 (rat, strain F344/DuCrj, males, in drinking water, site: palate, soft, lesion: squamous-cell carcinoma, dosed 50 weeks, study length 50 weeks)?
Its TD50 is 17 mg/kg/day.

What about the TD50 (rat, strain Fischer 344, females, by gavage, site: colon, lesion: one or several types, types not named, dosed 40 weeks, study length 104 weeks) of the same molecule?
Its TD50 is 2.31 mg/kg/day.

What about the TD50 (rat, strain Fischer 344, females, by gavage, site: forestomach, lesion: one or several types, types not named, dosed 40 weeks, study length 104 weeks) of the same molecule?
Its TD50 is 0.267 mg/kg/day.

And the TD50 (rat, strain Fischer 344, females, by gavage, site: lung, lesion: several types, types named in the paper, dosed 40 weeks, study length 104 weeks)?
Its TD50 is 0.277 mg/kg/day.

What about the TD50 (rat, strain Fischer 344, females, by gavage, site: mammary gland, lesion: adenocarcinoma, dosed 40 weeks, study length 104 weeks) of the same molecule?
The TD50 was 0.758 mg/kg/day.

And the TD50 (rat, strain Fischer 344, females, by gavage, site: uterus, lesion: several types, types named in the paper, dosed 40 weeks, study length 104 weeks)?
Its TD50 is 0.551 mg/kg/day.

And the TD50 (rat, strain Fischer 344, males, by gavage, site: colon, lesion: one or several types, types not named, dosed 40 weeks, study length 104 weeks)?
The TD50 was 1.61 mg/kg/day.

What about the TD50 (rat, strain Fischer 344, males, by gavage, site: forestomach, lesion: one or several types, types not named, dosed 40 weeks, study length 104 weeks) of the same molecule?
The TD50 was 0.259 mg/kg/day.

What about the TD50 (rat, strain Fischer 344, males, by gavage, site: lung, lesion: several types, types named in the paper, dosed 40 weeks, study length 104 weeks) of the same molecule?
Its TD50 is 0.187 mg/kg/day.

What about the TD50 (rat, strain MRC-Wistar, females, in drinking water, site: all sites, lesion: myelocytic leukemia, dosed 39 weeks, study length 85 weeks) of the same molecule?
Its TD50 is 3.27 mg/kg/day.

What about the TD50 (rat, strain MRC-Wistar, females, in drinking water, site: any site (literature study), lesion: one or several types, types not named, dosed 39 weeks, study length 85 weeks) of the same molecule?
Its TD50 is 1.02 mg/kg/day.

What about the TD50 (rat, strain MRC-Wistar, females, in drinking water, site: liver, lesion: one or several types, types not named, dosed 39 weeks, study length 85 weeks) of the same molecule?
Its TD50 is 6.63 mg/kg/day.

What about the TD50 (rat, strain MRC-Wistar, females, in drinking water, site: mammary gland, lesion: one or several types, types not named, dosed 39 weeks, study length 85 weeks) of the same molecule?
Its TD50 is 6.63 mg/kg/day (inactive).

What about the TD50 (rat, strain MRC-Wistar, males, in drinking water, site: all sites, lesion: myelocytic leukemia, dosed 39 weeks, study length 85 weeks) of the same molecule?
The TD50 was 2.86 mg/kg/day.

And the TD50 (rat, strain MRC-Wistar, males, in drinking water, site: any site (literature study), lesion: one or several types, types not named, dosed 39 weeks, study length 85 weeks)?
Its TD50 is 1.64 mg/kg/day.

And the TD50 (rat, strain MRC-Wistar, males, in drinking water, site: liver, lesion: one or several types, types not named, dosed 39 weeks, study length 85 weeks)?
The TD50 was 26.1 mg/kg/day.

With `O=C1c2ccccc2C(=O)c2c(O)c(O)cc(O)c21` as the molecule, how does the TD50 (rat, strain Fischer 344, males, in feed, site: urinary bladder, lesion: malignant tumor, dosed 74 weeks, study length 74 weeks) read?
The TD50 was 678 mg/kg/day.

What about the TD50 (rat, strain Fischer 344, males, in feed, site: urinary bladder, lesion: squamous-cell carcinoma, dosed 74 weeks, study length 74 weeks) of the same molecule?
Its TD50 is 3680 mg/kg/day.

What about the TD50 (rat, strain Fischer 344, males, in feed, site: urinary bladder, lesion: transitional-cell carcinoma, dosed 74 weeks, study length 74 weeks) of the same molecule?
The TD50 was 865 mg/kg/day.

What does the source list for `OC[P+](CO)(CO)CO`?
TD50 (mouse, strain B6C3F1, females, by gavage, site: any site (literature study), lesion: several types, types named in the paper, dosed 103 weeks, study length 104 weeks): 908 mg/kg/day (inactive); TD50 (mouse, strain B6C3F1, females, by gavage, site: liver, lesion: hepatocellular adenoma + hepatocellular carcinoma + neoplastic nodule, dosed 103 weeks, study length 104 weeks): 200 mg/kg/day; TD50 (mouse, strain B6C3F1, females, by gavage, site: lung, lesion: alveolar/bronchiolar adenoma + alveolar/bronchiolar carcinoma, dosed 104 weeks, study length 105 weeks): 234 mg/kg/day; TD50 (mouse, strain B6C3F1, females, by gavage, site: multiple organs, lesion: malignant lymphoma, mixed type, dosed 104 weeks, study length 105 weeks): 15.7 mg/kg/day (inactive); carcinogen call (mouse, strain B6C3F1, males, by gavage, site: any site (literature study), lesion: several types, types named in the paper, dosed 103 weeks, study length 104 weeks): negative (inactive); TD50 (mouse, strain B6C3F1, males, by gavage, site: any site (literature study), lesion: several types, types named in the paper, dosed 104 weeks, study length 105 weeks): 47.3 mg/kg/day; TD50 (mouse, strain B6C3F1, males, by gavage, site: lung, lesion: alveolar/bronchiolar adenoma + alveolar/bronchiolar carcinoma, dosed 103 weeks, study length 104 weeks): 103 mg/kg/day; TD50 (mouse, strain B6C3F1, males, by gavage, site: lung, lesion: alveolar/bronchiolar adenoma + alveolar/bronchiolar carcinoma, dosed 104 weeks, study length 105 weeks): 78.5 mg/kg/day; TD50 (mouse, strain B6C3F1, males, by gavage, site: multiple organs, lesion: malignant lymphoma, histiocytic type + malignant lymphoma, mixed type + malignant lymphoma, lymphocytic type + malignant lymph, dosed 104 weeks, study length 105 weeks): 11.4 mg/kg/day (inactive); TD50 (rat, strain Fischer 344, females, by gavage, site: any site (literature study), lesion: several types, types named in the paper, dosed 103 weeks, study length 104 weeks): 4.78 mg/kg/day (inactive); TD50 (rat, strain Fischer 344, females, by gavage, site: any site (literature study), lesion: several types, types named in the paper, dosed 104 weeks, study length 106 weeks): 23.3 mg/kg/day (inactive); TD50 (rat, strain Fischer 344, males, by gavage, site: any site (literature study), lesion: several types, types named in the paper, dosed 103 weeks, study length 104 weeks): 14.7 mg/kg/day; TD50 (rat, strain Fischer 344, males, by gavage, site: any site (literature study), lesion: several types, types named in the paper, dosed 104 weeks, study length 106 weeks): 1.78 mg/kg/day; TD50 (rat, strain Fischer 344, males, by gavage, site: liver, lesion: hepatocellular adenoma + hepatocellular carcinoma + neoplastic nodule, dosed 103 weeks, study length 104 weeks): 24.5 mg/kg/day; TD50 (rat, strain Fischer 344, males, by gavage, site: liver, lesion: hepatocellular adenoma + hepatocellular carcinoma + neoplastic nodule, dosed 104 weeks, study length 106 weeks): 12.4 mg/kg/day; TD50 (rat, strain Fischer 344, males, by gavage, site: multiple organs, lesion: mononuclear-cell leukemia, dosed 104 weeks, study length 106 weeks): 2.42 mg/kg/day (inactive); TD50 (rat, strain Fischer 344, males, by gavage, site: pituitary gland, anterior, lesion: adenoma, NOS + carcinoma, NOS, dosed 104 weeks, study length 106 weeks): 3.3 mg/kg/day; TD50 (rat, strain Fischer 344, males, by gavage, site: pituitary gland, anterior, lesion: adenoma, NOS, dosed 104 weeks, study length 106 weeks): 3.56 mg/kg/day; TD50 (rat, strain Fischer 344, males, by gavage, site: subcutaneous tissue, lesion: fibroma, dosed 103 weeks, study length 104 weeks): 24.9 mg/kg/day (inactive)

Which TD50 (rat, strain Buffalo, females, in feed, site: ear duct, lesion: squamous-cell carcinoma, dosed 86 weeks, study length 86 weeks) does the source give for `CC(=O)Nc1ccc2c(c1)C(=O)c1ccccc1-2` here?
Its TD50 is 32 mg/kg/day.

What about the TD50 (rat, strain Buffalo, females, in feed, site: liver, lesion: hepatoma, dosed 86 weeks, study length 86 weeks) of the same molecule?
Its TD50 is 102 mg/kg/day.

What about the TD50 (rat, strain Buffalo, females, in feed, site: mammary gland, lesion: adenocarcinoma, dosed 86 weeks, study length 86 weeks) of the same molecule?
Its TD50 is 6.17 mg/kg/day.

With `CCC(C)[N+](=O)[O-]` (stereo not drawn) as the molecule, how does the TD50 (rat, strain Fischer 344, males, by gavage, site: liver, lesion: hepatocellular carcinoma, dosed 50 weeks, study length 83 weeks) read?
The TD50 was 2.86 mg/kg/day.
